This test is described as follows: Peripheral MTII administration: food consumption in MC-3R−/− and WT mice. The following applies: single intraperitoneal injection, 10 mg/kg, n=9.

From the text: Food intake measurements—MC-3R^−/−, MC-3R^+/−, and WT mice were separated into individual microisolator cages at approximately one month of age. For studies involving regular mouse chow (Teklad 7012; 5% fat, 19% protein, and 5% of fiber; 3.75 grams/Kcal and 14.8% Kcal. from fat), pellet food was provided in wire cage tops containing food hoppers and food was weighed weekly. For studies involving a high fat diet (Teklad 97070; 33.5% fat, 27.4% protein, and 26.5% carbohydrates; 60% calories from fat), ground food was provided in a glass jar located in the cage and the jar containing the food was weighed either daily or weekly.
Peripheral MTII administration—For seven consecutive days, individually-housed 23-25-week-old male MC-3R^−/− (n=9) and WT (n=9) mice received an intraperitoneal (ip) injection of a sterile 0.9% NaCl vehicle solution approximately 30 min before the onset of the dark phase of the light cycle. At the same time on the eighth consecutive day of the study, mice received an ip injection of MTII at a dose of 10 mg/kg delivered in vehicle. Body and food (Teklad 7012) weights were measured and recorded daily approximately 15 min prior to injection.

As for MTII, the “reduction of food consumption over a 24-h period relative to a 2-day vehicle treatment baseline” value (male MC-3R−/− mice) is 16.9±7.0 % reduction and the “reduction of food consumption over a 24-h period relative to a 2-day vehicle treatment baseline” value (male WT mice) was 11.1±4.3 % reduction.

The values are drawn from patent US7321074B1, “Melanocortin-3 receptor deficient cells, non-human transgenic animals and methods of selecting compounds which regulate body weight” (Merck & Co., Inc., priority 1999, dated 2008).
